Earlier results, collected in patent publication US20080299102A1, “Novel BACE proteins, nucleic acid molecules therefor, novel crystal structure of novel BACE proteins, and methods for making and using” (priority 2001, published 2008).
Where a SMILES comes first, the peptide text is derived from it. [ ]: non-standard residue; d: D form. The star is where a group is joined. Sta = CC(C)C[C@H](N)[C@@H](O)CC(=O)O; Isovaleryl = CC(C)CC(=O)*

Molecular target: BACE (Homo sapiens, UniProt P56817)
Conditions: general statement in the description, no test data given

BACE, sequence (P56817 46-501): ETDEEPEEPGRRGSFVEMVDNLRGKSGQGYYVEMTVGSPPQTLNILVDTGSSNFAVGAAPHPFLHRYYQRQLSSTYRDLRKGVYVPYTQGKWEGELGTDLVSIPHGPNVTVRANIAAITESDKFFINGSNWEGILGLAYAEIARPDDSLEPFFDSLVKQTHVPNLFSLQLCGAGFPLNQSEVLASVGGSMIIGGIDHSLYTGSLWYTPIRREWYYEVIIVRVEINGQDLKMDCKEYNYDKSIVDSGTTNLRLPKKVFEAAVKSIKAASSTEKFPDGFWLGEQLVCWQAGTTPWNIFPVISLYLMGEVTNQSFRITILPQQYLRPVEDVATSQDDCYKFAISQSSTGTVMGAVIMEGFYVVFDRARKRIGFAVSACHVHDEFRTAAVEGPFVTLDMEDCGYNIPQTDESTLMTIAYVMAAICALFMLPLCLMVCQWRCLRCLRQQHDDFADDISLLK

CC(C)CC(=O)N[C@H](C(=O)N[C@H](C(=O)N[C@@H](CC(C)C)[C@@H](O)CC(=O)N[C@@H](C)C(=O)N[C@@H](CC(C)C)[C@@H](O)CC(=O)O)C(C)C)C(C)C [pepstatin] (Isovaleryl-VV[Sta]A[Sta]-OH)
inhibition of BACE: not inhibited
